Test results taken from US8507411B2, “Neoglycorandomization and digitoxin analogs” (priority 2004, dated 2013).
Where two headings read alike, the source gives them in different places.

Key:
HCT-116 = experiment: High-throughput calcein AM cytotoxicity assay, HCT-116; format: cell-based, human; details: HCT-116 cells
Text: (§1) Standard errors are depicted with error bars.

MCF7 = experiment: High-throughput calcein AM cytotoxicity assay, MCF7; format: cell-based, human; details: MCF7 cells
Text: as §1

NmuMG = experiment: cells; format: cell-based, mouse
Summary of the method: (§2)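 Live-cell esterase read-out: calcein AM added for 30 min at 37° C after 72 h compound exposure and a PBS wash. Dosing used a five-point 1:2 series. IC50 values are variable-slope logistic fits over at least six replicate experiments.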

Du145 = experiment: High-throughput calcein AM cytotoxicity assay, Du145; format: cell-based, human; details: Du145 cells
Text: as §1

A549 = experiment: High-throughput calcein AM cytotoxicity assay, A549; format: cell-based, human; details: A549 cells
Text: as §1

Hep3B = experiment: High-throughput calcein AM cytotoxicity assay, Hep3B; format: cell-based, human; details: Hep 3B cells
Text: as §1

SF-268 = experiment: cells; format: cell-based, human; details: SF-268 cells
Summary of the method: as §2

NCI/ADR-RES = experiment: cells; format: cell-based, human; details: NCI/ADR-RES cells
Summary of the method: as §2

SK-OV-3 = experiment: cells; format: cell-based, human; details: SK-OV-3 cells
Summary of the method: as §2

NCI-H460 = experiment: High-throughput calcein AM cytotoxicity assay, NCI-H460; format: cell-based, human; details: NCI-H460 cells
Text: as §1

[1] = NmuMG mouse mammary normal epithelial control line, read-out: IC50, NmuMG
[2] = NmuMG cells (mouse mammary normal epithelial control line), read-out: IC50

| Molecule | IC50 (HCT-116; read-out: IC50, HCT-116) | IC50 (MCF7; read-out: IC50, MCF7) | IC50 (NmuMG; [1]) | IC50 (Du145; read-out: IC50, Du145) | IC50 (A549; read-out: IC50, A549) | IC50 (Hep3B; read-out: IC50, Hep 3B) | IC50 (SF-268; read-out: IC50, SF-268) | IC50 (NCI/ADR-RES; read-out: IC50, NCI/ADR-RES) | IC50 (SK-OV-3; read-out: IC50, SK-OV-3) | IC50 (NCI-H460; read-out: IC50, NCI-H460) | IC50 (HCT-116; read-out: IC50) | IC50 (MCF7; read-out: IC50) | IC50 (NmuMG; [2]) | IC50 (Du145; read-out: IC50) | IC50 (A549; read-out: IC50) | IC50 (Hep3B; read-out: IC50) | IC50 (SF-268; read-out: IC50) | IC50 (NCI/ADR-RES; read-out: IC50) | IC50 (SK-OV-3; read-out: IC50) | IC50 (NCI-H460; read-out: IC50) |
| --- | --- | --- | --- | --- | --- | --- | --- | --- | --- | --- | --- | --- | --- | --- | --- | --- | --- | --- | --- | --- |
| CON(C1CCC2(C)C(CCC3C2CCC2(C)C(C4=CC(=O)OC4)CCC32O)C1)C1OC(CO)C(O)C(O)C1O [20α, D-altroside] | > 25 µM | > 25 µM | > 25 µM | > 25 µM | > 25 µM | > 25 µM | > 25 µM | > 25 µM | > 25 µM | > 25 µM | – | – | – | – | – | – | – | – | – | – |
| CON(C1CCC2(C)C(CCC3C2CCC2(C)C(C4=CC(=O)OC4)CCC32O)C1)C1OC(C)C(O)C(O)C1O [8α, D-fucoside] | > 25 µM | > 25 µM | > 25 µM | > 25 µM | > 25 µM | > 25 µM | > 25 µM | > 25 µM | > 25 µM | > 25 µM | – | – | – | – | – | – | – | – | – | – |
| CON(C1CCC2(C)C(CCC3C2CCC2(C)C(C4=CC(=O)OC4)CCC32O)C1)C1OC(C)C(O)C(O)C1O [11α, 6-deoxy-D-glucoside] | > 25 µM | > 25 µM | > 25 µM | > 25 µM | > 25 µM | > 25 µM | > 25 µM | > 25 µM | > 25 µM | > 25 µM | – | – | – | – | – | – | – | – | – | – |
| CON([C@H]1CC[C@@]2(C)[C@H](CC[C@@H]3[C@@H]2CC[C@]2(C)[C@@H](C4=CC(=O)OC4)CC[C@]32O)C1)[C@@H]1O[C@H](C)[C@H](O)[C@H](O)[C@H]1O [8β, D-fucoside] | 7 µM | 11 µM | > 25 µM | 3.9 µM | 1.8 µM | 4.9 µM | 10 µM | 1.5 µM | 5 µM | 1.3 µM | – | – | – | – | – | – | – | – | – | – |
| L-rhamnoside [16α] | > 25 µM | > 25 µM | > 25 µM | > 25 µM | > 25 µM | > 25 µM | > 25 µM | > 25 µM | > 25 µM | > 25 µM | – | – | – | – | – | – | – | – | – | – |
| CON(C1CCC2(C)C(CCC3C2CCC2(C)C(C4=CC(=O)OC4)CCC32O)C1)C1OC(CO)C(O)C(O)C1O [21α, L-galactoside] | > 25 µM | > 25 µM | > 25 µM | > 25 µM | > 25 µM | > 25 µM | > 25 µM | > 25 µM | > 25 µM | > 25 µM | – | – | – | – | – | – | – | – | – | – |
| CON(C1CCC2(C)C(CCC3C2CCC2(C)C(C4=CC(=O)OC4)CCC32O)C1)C1OC(CF)C(O)C(O)C1O [13α, 6-deoxy-6-fluoro-D-glucoside] | > 25 µM | > 25 µM | > 25 µM | > 25 µM | > 25 µM | > 25 µM | > 25 µM | > 25 µM | > 25 µM | > 25 µM | – | – | – | – | – | – | – | – | – | – |
| CON(C1CCC2(C)C(CCC3C2CCC2(C)C(C4=CC(=O)OC4)CCC32O)C1)C1OC(CO)C(OC2OC(CO)C(O)C(O)C2O)C(O)C1O (stereo not drawn) [36α, lactoside] | – | – | – | – | – | – | – | – | – | – | > 25 µM | > 25 µM | > 25 µM | > 25 µM | > 25 µM | > 25 µM | > 25 µM | > 25 µM | > 25 µM | > 25 µM |
| CON(C1CCC2(C)C(CCC3C2CCC2(C)C(C4=CC(=O)OC4)CCC32O)C1)C1OC(CO)C(O)C(O)C1O [17α, L-alloside] | > 25 µM | > 25 µM | > 25 µM | > 25 µM | > 25 µM | > 25 µM | > 25 µM | > 25 µM | > 25 µM | > 25 µM | – | – | – | – | – | – | – | – | – | – |
| CON([C@H]1CC[C@@]2(C)[C@H](CC[C@@H]3[C@@H]2CC[C@]2(C)[C@@H](C4=CC(=O)OC4)CC[C@]32O)C1)[C@H]1O[C@@H](CO)[C@H](O)[C@H](O)[C@H]1O [19β, L-altroside] | 1.1 µM | 1.3 µM | 1 µM | 2.1 µM | 0.76 µM | 2 µM | 1.2 µM | 0.41 µM | 1 µM | 1.6 µM | – | – | – | – | – | – | – | – | – | – |
| CON(C1CCC2(C)C(CCC3C2CCC2(C)C(C4=CC(=O)OC4)CCC32O)C1)C1OC(CO)C(O)C(O)C1F [12α, 2-deoxy-2-fluoro-D-glucoside] | > 25 µM | > 25 µM | > 25 µM | > 25 µM | > 25 µM | > 25 µM | > 25 µM | > 25 µM | > 25 µM | > 25 µM | – | – | – | – | – | – | – | – | – | – |
| CON(C1CCC2(C)C(CCC3C2CCC2(C)C(C4=CC(=O)OC4)CCC32O)C1)C1OC(CO)C(O)C(O)C1O [28α, L-idoside] | > 25 µM | > 25 µM | – | > 25 µM | > 25 µM | > 25 µM | > 25 µM | > 25 µM | > 25 µM | > 25 µM | – | – | > 25 µM | – | – | – | – | – | – | – |
| CON(C1CCC2(C)C(CCC3C2CCC2(C)C(C4=CC(=O)OC4)CCC32O)C1)C1CC(O)C(O)C(CO)O1 [9α, 2-deoxy-D-galactoside] | > 25 µM | > 25 µM | > 25 µM | > 25 µM | > 25 µM | > 25 µM | > 25 µM | > 25 µM | > 25 µM | > 25 µM | – | – | – | – | – | – | – | – | – | – |
| 6-keto-D-galactoside [31β] | 3.1 µM | 9 µM | > 25 µM | 1.5 µM | 2.3 µM | 3.1 µM | 8 µM | 1 µM | 2.9 µM | 2.4 µM | – | – | – | – | – | – | – | – | – | – |
| CON(C1CCC2(C)C(CCC3C2CCC2(C)C(C4=CC(=O)OC4)CCC32O)C1)C1OCC(O)C(O)C1O [32α, L-arabinoside] | – | – | – | – | – | – | – | – | – | – | > 25 µM | > 25 µM | > 25 µM | > 25 µM | > 25 µM | > 25 µM | > 25 µM | > 25 µM | > 25 µM | > 25 µM |
| CON([C@H]1CC[C@@]2(C)[C@H](CC[C@@H]3[C@@H]2CC[C@]2(C)[C@@H](C4=CC(=O)OC4)CC[C@]32O)C1)[C@H]1O[C@@H](CO)[C@@H](O)[C@@H](O)[C@@H]1O [21β, L-galactoside] | 2.1 µM | 1.8 µM | 1 µM | 2.1 µM | 0.9 µM | 1.3 µM | 1.4 µM | 1.6 µM | 1.6 µM | 2.6 µM | – | – | – | – | – | – | – | – | – | – |
| CON(C1CCC2(C)C(CCC3C2CCC2(C)C(C4=CC(=O)OC4)CCC32O)C1)C1OC(COC2OC(CO)C(O)C(O)C2O)C(O)C(O)C1O (stereo not drawn) [35α, melibioside] | – | – | – | – | – | – | – | – | – | – | > 25 µM | > 25 µM | > 25 µM | > 25 µM | > 25 µM | > 25 µM | > 25 µM | > 25 µM | > 25 µM | > 25 µM |
| C[C@]12CC[C@H](O[C@@H]3O[C@H](CO)[C@@H](O)[C@H](O)[C@H]3O)C[C@H]1CC[C@@H]1[C@@H]2CC[C@]2(C)[C@@H](C3=CC(=O)OC3)CC[C@]12O [43β, O-D-glucoside] | 0.6 µM | 0.7 µM | > 25 µM | 0.22 µM | 0.29 µM | 0.21 µM | 0.22 µM | 0.19 µM | 0.4 µM | 0.39 µM | – | – | – | – | – | – | – | – | – | – |
